Molecular target: MCH receptor (Homo sapiens, UniProt Q99705)
Test: Receptor binding assay with Radiolabelled MCH Ligand
Design: expressed in transfected cells; host or cells: 293 cells (human kidney, ATCC), transient transfection; crude membranes
Conditions: class by percent of control at 10^-7 M or IC50
In short: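 Membranes from 293 cells transiently transfected with human MCH receptor competed test compounds against a radiolabelled MCH ligand in Tris-HCl pH 7.4 with MgCl2 and EDTA for 60–120 min at room temperature. Filtration and scintillation counting followed, with cold MCH defining nonspecific binding. IC50 came from logit-log plots of %B/B0, and Ki from the Cheng-Prusoff equation.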

Chain of MCH receptor (Q99705 whole entry): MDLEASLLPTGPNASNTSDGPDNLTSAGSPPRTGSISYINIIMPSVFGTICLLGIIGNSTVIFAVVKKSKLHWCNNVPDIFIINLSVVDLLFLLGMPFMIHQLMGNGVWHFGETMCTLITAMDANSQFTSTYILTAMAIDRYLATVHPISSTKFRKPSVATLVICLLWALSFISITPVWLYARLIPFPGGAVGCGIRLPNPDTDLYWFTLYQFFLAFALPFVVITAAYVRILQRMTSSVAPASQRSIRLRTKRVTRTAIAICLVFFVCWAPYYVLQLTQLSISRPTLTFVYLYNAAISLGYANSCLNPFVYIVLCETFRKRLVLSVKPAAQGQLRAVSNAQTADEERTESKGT

Row | Structure (SMILES) | class
1 | Cc1nc(N[C@H]2CC[C@@H](NCc3ccc(Br)cc3)CC2)cc(N(C)C)n1 [compound 358] | 3 (Class 3: The value of percent of control at 10^−7 M was more than 60% or the value of IC50 was more than 200 nM.)
2 | Cc1nc(N[C@H]2CC[C@@H](NCCOCc3ccccc3)CC2)cc(N(C)C)n1 [compound 359] | 3 (Class 3: The value of percent of control at 10^−7 M was more than 60% or the value of IC50 was more than 200 nM.)
3 | Cc1nc(N[C@H]2CC[C@@H](NCc3ccc(Cl)cc3)CC2)cc(N(C)C)n1 [compound 360] | 3 (Class 3: The value of percent of control at 10^−7 M was more than 60% or the value of IC50 was more than 200 nM.)
4 | Cc1nc(N[C@H]2CC[C@@H](NCCOc3ccc(Cl)cc3)CC2)cc(N(C)C)n1 [compound 361] | 3 (Class 3: The value of percent of control at 10^−7 M was more than 60% or the value of IC50 was more than 200 nM.)
5 | Cc1nc(N[C@H]2CC[C@@H](NCC3CC3)CC2)cc(N(C)C)n1 [compound 362] | 3 (Class 3: The value of percent of control at 10^−7 M was more than 60% or the value of IC50 was more than 200 nM.)
6 | Cc1nc(N[C@H]2CC[C@@H](NCC3CCCCC3)CC2)cc(N(C)C)n1 [compound 363] | 3 (Class 3: The value of percent of control at 10^−7 M was more than 60% or the value of IC50 was more than 200 nM.)
7 | Cc1nc(N[C@H]2CC[C@@H](NCCc3ccc(Cl)cc3)CC2)cc(N(C)C)n1 [compound 364] | 3 (Class 3: The value of percent of control at 10^−7 M was more than 60% or the value of IC50 was more than 200 nM.)
8 | Cc1nc(N[C@H]2CC[C@@H](NCC3(c4ccc(Cl)cc4)CCCC3)CC2)cc(N(C)C)n1 [compound 365] | 3 (Class 3: The value of percent of control at 10^−7 M was more than 60% or the value of IC50 was more than 200 nM.)
9 | Cc1nc(N[C@H]2CC[C@@H](NCc3c(-c4c(F)cccc4Cl)noc3C)CC2)cc(N(C)C)n1 [compound 366] | 3 (Class 3: The value of percent of control at 10^−7 M was more than 60% or the value of IC50 was more than 200 nM.)
10 | Cc1nc(N[C@H]2CC[C@@H](NCc3scc(S(=O)(=O)c4ccc(Cl)cc4)c3C)CC2)cc(N(C)C)n1 [compound 367] | 3 (Class 3: The value of percent of control at 10^−7 M was more than 60% or the value of IC50 was more than 200 nM.)
11 | Cc1nc(N[C@H]2CC[C@@H](NCc3ccc(N(C)C)cc3)CC2)cc(N(C)C)n1 [compound 368] | 3 (Class 3: The value of percent of control at 10^−7 M was more than 60% or the value of IC50 was more than 200 nM.)
12 | Cc1nc(N[C@H]2CC[C@@H](NCc3ccc(F)c(F)c3)CC2)cc(N(C)C)n1 [compound 369] | 3 (Class 3: The value of percent of control at 10^−7 M was more than 60% or the value of IC50 was more than 200 nM.)
13 | COc1ccc(CN[C@H]2CC[C@@H](Nc3cc(N(C)C)nc(C)n3)CC2)cc1OC [compound 370] | 3 (Class 3: The value of percent of control at 10^−7 M was more than 60% or the value of IC50 was more than 200 nM.)
14 | CCOc1ccc(CN[C@H]2CC[C@@H](Nc3cc(N(C)C)nc(C)n3)CC2)cc1 [compound 371] | 3 (Class 3: The value of percent of control at 10^−7 M was more than 60% or the value of IC50 was more than 200 nM.)
15 | Cc1nc(N[C@H]2CC[C@@H](NCc3ccc(F)cc3)CC2)cc(N(C)C)n1 [compound 372] | 3 (Class 3: The value of percent of control at 10^−7 M was more than 60% or the value of IC50 was more than 200 nM.)
16 | Cc1nc(N[C@H]2CC[C@@H](NCc3ccco3)CC2)cc(N(C)C)n1 [compound 373] | 3 (Class 3: The value of percent of control at 10^−7 M was more than 60% or the value of IC50 was more than 200 nM.)
17 | Cc1nc(N[C@H]2CC[C@@H](NCc3ccno3)CC2)cc(N(C)C)n1 [compound 374] | 3 (Class 3: The value of percent of control at 10^−7 M was more than 60% or the value of IC50 was more than 200 nM.)
18 | Cc1nc(N[C@H]2CC[C@@H](NCc3ccccc3I)CC2)cc(N(C)C)n1 [compound 375] | 3 (Class 3: The value of percent of control at 10^−7 M was more than 60% or the value of IC50 was more than 200 nM.)
19 | Cc1nc(N[C@H]2CC[C@@H](NCc3nn(-c4ccccc4)nc3C)CC2)cc(N(C)C)n1 [compound 376] | 3 (Class 3: The value of percent of control at 10^−7 M was more than 60% or the value of IC50 was more than 200 nM.)
20 | COc1ccc(Oc2ccc([N+](=O)[O-])cc2CN[C@H]2CC[C@@H](Nc3cc(N(C)C)nc(C)n3)CC2)cc1 [compound 377] | 3 (Class 3: The value of percent of control at 10^−7 M was more than 60% or the value of IC50 was more than 200 nM.)
21 | Cc1nc(N[C@H]2CC[C@@H](NCc3ccc4ccccc4c3)CC2)cc(N(C)C)n1 [compound 378] | 3 (Class 3: The value of percent of control at 10^−7 M was more than 60% or the value of IC50 was more than 200 nM.)
22 | Cc1nc(N[C@H]2CC[C@@H](NCc3cccc([N+](=O)[O-])c3)CC2)cc(N(C)C)n1 [compound 379] | 3 (Class 3: The value of percent of control at 10^−7 M was more than 60% or the value of IC50 was more than 200 nM.)

Row | Structure (SMILES) | class
23 | Cc1nc(N[C@H]2CC[C@@H](NCc3cnn(-c4ccc([N+](=O)[O-])cc4)c3C(F)(F)F)CC2)cc(N(C)C)n1 [compound 380] | 3 (Class 3: The value of percent of control at 10^−7 M was more than 60% or the value of IC50 was more than 200 nM.)
24 | Cc1nc(N[C@H]2CC[C@@H](NCCOc3ccccc3)CC2)cc(N(C)C)n1 [compound 381] | 3 (Class 3: The value of percent of control at 10^−7 M was more than 60% or the value of IC50 was more than 200 nM.)
25 | Cc1nc(N[C@H]2CC[C@@H](NCCc3ccccc3)CC2)cc(N(C)C)n1 [compound 382] | 3 (Class 3: The value of percent of control at 10^−7 M was more than 60% or the value of IC50 was more than 200 nM.)
26 | Cc1nc(N[C@H]2CC[C@@H](NCC3C[C@H]3c3ccccc3)CC2)cc(N(C)C)n1 (stereo partly shown) [compound 383] | 3 (Class 3: The value of percent of control at 10^−7 M was more than 60% or the value of IC50 was more than 200 nM.)
27 | Cc1nc(N[C@H]2CC[C@@H](NCc3cnn(-c4ccccc4)c3C(F)(F)F)CC2)cc(N(C)C)n1 [compound 384] | 3 (Class 3: The value of percent of control at 10^−7 M was more than 60% or the value of IC50 was more than 200 nM.)
28 | Cc1nc(N[C@H]2CC[C@@H](NCCOc3ccccc3[N+](=O)[O-])CC2)cc(N(C)C)n1 [compound 385] | 3 (Class 3: The value of percent of control at 10^−7 M was more than 60% or the value of IC50 was more than 200 nM.)
29 | Cc1nc(N[C@H]2CC[C@@H](NCc3cccc(C(F)(F)F)c3)CC2)cc(N(C)C)n1 [compound 386] | 3 (Class 3: The value of percent of control at 10^−7 M was more than 60% or the value of IC50 was more than 200 nM.)
30 | Cc1ccc(CN[C@H]2CC[C@@H](Nc3cc(N(C)C)nc(C)n3)CC2)cc1 [compound 387] | 3 (Class 3: The value of percent of control at 10^−7 M was more than 60% or the value of IC50 was more than 200 nM.)
31 | Cc1nc(N[C@H]2CC[C@@H](NCc3cccs3)CC2)cc(N(C)C)n1 [compound 388] | 3 (Class 3: The value of percent of control at 10^−7 M was more than 60% or the value of IC50 was more than 200 nM.)
32 | Cc1nc(N[C@H]2CC[C@@H](NCCOc3c(F)c(F)c(F)c(F)c3F)CC2)cc(N(C)C)n1 [compound 389] | 3 (Class 3: The value of percent of control at 10^−7 M was more than 60% or the value of IC50 was more than 200 nM.)
33 | COc1ccc(CCN[C@H]2CC[C@@H](Nc3cc(N(C)C)nc(C)n3)CC2)cc1OC [compound 390] | 3 (Class 3: The value of percent of control at 10^−7 M was more than 60% or the value of IC50 was more than 200 nM.)
34 | Cc1nc(N[C@H]2CC[C@@H](NCCSc3ccccc3)CC2)cc(N(C)C)n1 [compound 391] | 3 (Class 3: The value of percent of control at 10^−7 M was more than 60% or the value of IC50 was more than 200 nM.)
35 | Cc1nc(N[C@H]2CC[C@@H](NCc3cccc4c3-c3ccccc3C4=O)CC2)cc(N(C)C)n1 [compound 392] | 3 (Class 3: The value of percent of control at 10^−7 M was more than 60% or the value of IC50 was more than 200 nM.)
36 | Cc1nc(N[C@H]2CC[C@@H](NCc3ccc(OC(F)(F)F)cc3)CC2)cc(N(C)C)n1 [compound 393] | 3 (Class 3: The value of percent of control at 10^−7 M was more than 60% or the value of IC50 was more than 200 nM.)
37 | Cc1nc(N[C@H]2CC[C@@H](NCc3ccc(F)cc3C(F)(F)F)CC2)cc(N(C)C)n1 [compound 394] | 3 (Class 3: The value of percent of control at 10^−7 M was more than 60% or the value of IC50 was more than 200 nM.)
38 | Cc1nc(N[C@H]2CC[C@@H](NCCc3ccc(F)cc3)CC2)cc(N(C)C)n1 [compound 395] | 3 (Class 3: The value of percent of control at 10^−7 M was more than 60% or the value of IC50 was more than 200 nM.)
39 | CCCCCCCOc1ccc(CN[C@H]2CC[C@@H](Nc3cc(N(C)C)nc(C)n3)CC2)cc1 [compound 396] | 3 (Class 3: The value of percent of control at 10^−7 M was more than 60% or the value of IC50 was more than 200 nM.)
40 | CCCCCc1ccc(CN[C@H]2CC[C@@H](Nc3cc(N(C)C)nc(C)n3)CC2)cc1 [compound 397] | 3 (Class 3: The value of percent of control at 10^−7 M was more than 60% or the value of IC50 was more than 200 nM.)
41 | Cc1nc(N[C@H]2CC[C@@H](NCC3CCCC3)CC2)cc(N(C)C)n1 [compound 398] | 3 (Class 3: The value of percent of control at 10^−7 M was more than 60% or the value of IC50 was more than 200 nM.)
42 | CCCCCCCCCc1ccc(CN[C@H]2CC[C@@H](Nc3cc(N(C)C)nc(C)n3)CC2)cc1 [compound 399] | 3 (Class 3: The value of percent of control at 10^−7 M was more than 60% or the value of IC50 was more than 200 nM.)
43 | Cc1nc(N[C@H]2CC[C@@H](NCCOc3ccc(C(C)(C)C)cc3)CC2)cc(N(C)C)n1 [compound 400] | 3 (Class 3: The value of percent of control at 10^−7 M was more than 60% or the value of IC50 was more than 200 nM.)
